Reference: ChEMBL document CHEMBL1201862, “PubChem BioAssay data set” (2004)
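Following 48 hours of exposure in 96-well plates, responses at five concentrations were used to interpolate endpoints linearly. GI50 is the concentration that inhibits growth by half.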 Activity calls are given as the source filed them. Rule as the data show it: active = GI50 up to about 1.1 µM and inactive = higher.

Assays:
Assay in all cases: NCI tumour cell line growth inhibition, 48 h
A498 = test system: A498
A549 = test system: A549
CAKI-1 = test system: CAKI-1
CCRF-CEM = test system: CCRF-CEM
COLO 205 = test system: COLO 205
DLD-1 = test system: DLD-1
DMS-114 = test system: DMS-114
DMS-273 = test system: DMS-273
EKVX = test system: EKVX
HCC 2998 = test system: HCC 2998
HCT-116 = test system: HCT-116
HCT-15 = test system: HCT-15
HL-60 = test system: HL-60
HOP-18 = test system: HOP-18
HOP-62 = test system: HOP-62
HOP-92 = test system: HOP-92
HT-29 = test system: HT-29
IGROV-1 = test system: IGROV-1
K562 = test system: K562
KM-20L2 = test system: KM-20L2
KM12 = test system: KM12
LOX IMVI = test system: LOX IMVI
M19-MEL = test system: M19-MEL
MCF7 = test system: MCF7
MOLT-4 = test system: MOLT-4
NCI-H226 = test system: NCI-H226
NCI-H23 = test system: NCI-H23
NCI-H460 = test system: NCI-H460
NCI-H522 = test system: NCI-H522
NCI/ADR-RES = test system: NCI/ADR-RES
OVCAR-3 = test system: OVCAR-3
OVCAR-4 = test system: OVCAR-4
OVCAR-5 = test system: OVCAR-5
OVCAR-8 = test system: OVCAR-8
RPMI-8226 = test system: RPMI-8226
RXF 393 = test system: RXF 393
SF-268 = test system: SF-268
SF-295 = test system: SF-295
SF-539 = test system: SF-539
SK-MEL-28 = test system: SK-MEL-28
SK-MEL-2 = test system: SK-MEL-2
SK-MEL-5 = test system: SK-MEL-5
SK-OV-3 = test system: SK-OV-3
SN12C = test system: SN12C
SNB-19 = test system: SNB-19
SNB-75 = test system: SNB-75
SNB-78 = test system: SNB-78
SW-620 = test system: SW-620
U-251 = test system: U-251
UACC-257 = test system: UACC-257
UACC-62 = test system: UACC-62
UO-31 = test system: UO-31
XF498 = test system: XF498
786-0 = test system: 786-0
ACHN = test system: ACHN
LXFL 529 = test system: LXFL 529
M14 = test system: M14
Malme-3M = test system: Malme-3M
SR = test system: SR

For `C=CCNC(=O)C(C)C1CCC2(C)C=CC(=O)C(C)=C2C1O` (stereo not drawn), the GI50 (A498) was > 100 µM (inactive), the GI50 (A549) was > 100 µM (inactive) and the GI50 (CAKI-1) was > 100 µM (inactive). For the same compound, the GI50 (CCRF-CEM) was > 100 µM (inactive), the GI50 (COLO 205) was > 100 µM (inactive) and the GI50 (DLD-1) was > 100 µM (inactive). The GI50 (DMS-114) was > 100 µM (inactive), the GI50 (DMS-273) was > 100 µM (inactive) and the GI50 (EKVX) was > 100 µM (inactive). For the same compound, the GI50 (HCC 2998) was > 100 µM (inactive), the GI50 (HCT-116) was > 100 µM (inactive) and the GI50 (HCT-15) was over 100 µM. The GI50 (HL-60) was > 100 µM (inactive), the GI50 (HOP-18) was > 100 µM (inactive) and the GI50 (HOP-62) was > 100 µM (inactive). For the same compound, the GI50 (HOP-92) was > 100 µM (inactive), the GI50 (HT-29) was > 100 µM (inactive) and the GI50 (IGROV-1) was > 100 µM (inactive). For the same compound, the GI50 (K562) was > 100 µM (inactive), the GI50 (KM-20L2) was > 100 µM (inactive) and the GI50 (KM12) was > 100 µM (inactive). The GI50 (LOX IMVI) was > 100 µM (inactive), the GI50 (M19-MEL) was > 100 µM (inactive) and the GI50 (MCF7) was > 100 µM (inactive). The GI50 (MOLT-4) was > 100 µM (inactive), the GI50 (NCI-H226) was > 100 µM (inactive) and the GI50 (NCI-H23) was > 100 µM (inactive). The GI50 (NCI-H460) was > 100 µM (inactive), the GI50 (NCI-H522) was > 100 µM (inactive) and the GI50 (NCI/ADR-RES) was > 100 µM (inactive). For the same compound, the GI50 (OVCAR-3) was > 100 µM (inactive), the GI50 (OVCAR-4) was > 100 µM (inactive) and the GI50 (OVCAR-5) was > 100 µM (inactive). For the same compound, the GI50 (OVCAR-8) was > 100 µM (inactive), the GI50 (RPMI-8226) was > 100 µM (inactive) and the GI50 (RXF 393) was > 100 µM (inactive). For the same compound, the GI50 (SF-268) was > 100 µM (inactive), the GI50 (SF-295) was > 100 µM (inactive) and the GI50 (SF-539) was > 100 µM (inactive). The GI50 (SK-MEL-28) was > 100 µM (inactive), the GI50 (SK-MEL-2) was > 100 µM (inactive) and the GI50 (SK-MEL-5) was > 100 µM (inactive). The GI50 (SK-OV-3) was > 100 µM (inactive), the GI50 (SN12C) was > 100 µM (inactive) and the GI50 (SNB-19) was > 100 µM (inactive). For the same compound, the GI50 (SNB-75) was > 100 µM (inactive), the GI50 (SNB-78) was > 25.8 µM (inactive) and the GI50 (SW-620) was > 100 µM (inactive). The GI50 (U-251) was > 100 µM (inactive), the GI50 (UACC-257) was > 100 µM (inactive) and the GI50 (UACC-62) was > 100 µM (inactive). For the same compound, the GI50 (UO-31) was > 100 µM (inactive) and the GI50 (XF498) was > 100 µM (inactive).

With `COc1ccc(C2=C(Cl)c3cc(OC)c(OC)cc3C2)cc1OC` the GI50 (786-0) was > 100 µM (inactive), the GI50 (A498) was 34.9 µM (inactive) and the GI50 (A549) was > 100 µM (inactive). The GI50 (ACHN) was > 100 µM (inactive), the GI50 (CCRF-CEM) was > 100 µM (inactive) and the GI50 (COLO 205) was > 100 µM (inactive). For the same compound, the GI50 (DLD-1) was > 100 µM (inactive), the GI50 (DMS-114) was > 100 µM (inactive) and the GI50 (DMS-273) was > 100 µM (inactive). The GI50 (EKVX) was > 100 µM (inactive), the GI50 (HCC 2998) was > 100 µM (inactive) and the GI50 (HCT-116) was > 100 µM (inactive). The GI50 (HCT-15) was over 100 µM, the GI50 (HL-60) was > 100 µM (inactive) and the GI50 (HOP-18) was > 100 µM (inactive). For the same compound, the GI50 (HOP-62) was > 100 µM (inactive), the GI50 (HOP-92) was > 100 µM (inactive) and the GI50 (HT-29) was > 100 µM (inactive). For the same compound, the GI50 (IGROV-1) was > 100 µM (inactive), the GI50 (K562) was > 100 µM (inactive) and the GI50 (KM-20L2) was > 100 µM (inactive). The GI50 (LXFL 529) was > 100 µM (inactive), the GI50 (M14) was > 100 µM (inactive) and the GI50 (M19-MEL) was > 100 µM (inactive). The GI50 (MOLT-4) was > 100 µM (inactive), the GI50 (Malme-3M) was > 100 µM (inactive) and the GI50 (NCI-H226) was > 100 µM (inactive). For the same compound, the GI50 (NCI-H23) was > 100 µM (inactive), the GI50 (NCI-H522) was > 100 µM (inactive) and the GI50 (OVCAR-4) was > 100 µM (inactive). For the same compound, the GI50 (OVCAR-8) was > 100 µM (inactive), the GI50 (RPMI-8226) was > 100 µM (inactive) and the GI50 (RXF 393) was 24.4 µM (inactive). The GI50 (SF-268) was > 100 µM (inactive), the GI50 (SF-295) was > 100 µM (inactive) and the GI50 (SF-539) was > 100 µM (inactive). For the same compound, the GI50 (SK-MEL-28) was > 100 µM (inactive), the GI50 (SK-MEL-5) was > 100 µM (inactive) and the GI50 (SK-OV-3) was > 100 µM (inactive). The GI50 (SN12C) was > 100 µM (inactive), the GI50 (SNB-19) was > 100 µM (inactive) and the GI50 (SNB-75) was > 100 µM (inactive). The GI50 (SNB-78) was > 100 µM (inactive), the GI50 (SR) was > 100 µM (inactive) and the GI50 (SW-620) was > 100 µM (inactive). The GI50 (U-251) was > 100 µM (inactive), the GI50 (UACC-257) was > 100 µM (inactive) and the GI50 (UACC-62) was > 100 µM (inactive). For the same compound, the GI50 (UO-31) was > 100 µM (inactive) and the GI50 (XF498) was > 100 µM (inactive).
